Measurements from ChEMBL document CHEMBL1153683, “Triply-convergent synthesis of two sets of homochiral cyclopent[a]indene carbacyclin analogs” (Bioorg Med Chem Lett, 1991).
pIC50: −log10 of the molar value.

Organism: Homo sapiens
Test: Compound was evaluated for the inhibition of collagen-induced platelet aggregation
Type: functional

| Compound | pIC50 |
| --- | --- |
| O=C(O)Cc1ccc2c(c1)[C@H]1C[C@@H](O)[C@H](CC[C@@H](O)C3CCCCC3)[C@H]1C2 | 6.48 |
| O=C(O)CCc1ccc2c(c1)[C@H]1C[C@@H](O)[C@H](CC[C@@H](O)C3CCCCC3)[C@H]1C2 | 5.66 |
| O=C(O)CCc1ccc2c(c1)[C@H]1C[C@@H](O)[C@H](C#C[C@@H](O)C3CCCCC3)[C@H]1C2 | 6.48 |

Now from value to compound:

| pIC50 | Compound |
| --- | --- |
| < 4.00 | O=C(O)CCc1ccc2c(c1)[C@H]1C[C@@H](O)[C@H](/C=C\[C@@H](O)C3CCCCC3)[C@H]1C2 |
| < 4.00 | O=C(O)Cc1ccc2c(c1)[C@H]1C[C@@H](O)[C@H](/C=C\[C@@H](O)C3CCCCC3)[C@H]1C2 |
| 6.74 | O=C(O)Cc1ccc2c(c1)[C@H]1C[C@@H](O)[C@H](C#C[C@@H](O)C3CCCCC3)[C@H]1C2 |
